From the supplement of paper PMC10307832

What was measured:
Experiment in all cases: relative viability (nuclei count vs DMSO), 5 days (fraction); higher = more cells survive
Idelalisib + Luminespib = compound: CC[C@H](Nc1ncnc2[nH]cnc12)c1nc2cccc(F)c2c(=O)n1-c1ccccc1 [Idelalisib] + CCNC(=O)c1noc(-c2cc(C(C)C)c(O)cc2O)c1-c1ccc(CN2CCOCC2)cc1 [Luminespib] (partner 0.01 µM)
Summary of the method: (§1)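 Cells from lung cancer lines were seeded into 1536-well plates and, one day later, dosed by pin tool. Treatments were either a single drug or a fixed dose of an anchor drug with five library-drug doses (not always all listed) in √10 steps. After 5 days, nuclei were stained in a one-step fixation (final 0.05% Triton X-100, 1% formaldehyde, 1 ug/ml Hoechst) and counted on 4× images, and relative viability is the treated-to-vehicle nuclei ratio, as the median of duplicate plates.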

Idelalisib + Phenformin = compound: CC[C@H](Nc1ncnc2[nH]cnc12)c1nc2cccc(F)c2c(=O)n1-c1ccccc1 [Idelalisib] + N=C(N)NC(=N)NCCc1ccccc1 [Phenformin] (partner 250 µM)
Summary of the method: as §1

Pemetrexed + OSI-027 = compound: Nc1nc2[nH]cc(CCc3ccc(C(=O)N[C@@H](CCC(=O)O)C(=O)O)cc3)c2c(=O)[nH]1 [Pemetrexed] + COc1cccc2cc(-c3nc([C@H]4CC[C@H](C(=O)O)CC4)n4ncnc(N)c34)[nH]c12 [OSI-027] (partner 0.5 µM)
Summary of the method: as §1

Pemetrexed + Palbociclib = compound: Nc1nc2[nH]cc(CCc3ccc(C(=O)N[C@@H](CCC(=O)O)C(=O)O)cc3)c2c(=O)[nH]1 [Pemetrexed] + CC(=O)c1c(C)c2cnc(Nc3ccc(N4CCNCC4)cn3)nc2n(C2CCCC2)c1=O [Palbociclib] (partner 0.5 µM)
Summary of the method: as §1

Cell Line	relative viability (Idelalisib + Luminespib; first compound 0.04 µM)	relative viability (Idelalisib + Luminespib; first compound 0.1265 µM)	relative viability (Idelalisib + Luminespib; first compound 0.4 µM)	relative viability (Idelalisib + Luminespib; first compound 1.265 µM)	relative viability (Idelalisib + Luminespib; first compound 4 µM)	relative viability (Idelalisib + Phenformin; first compound 0.04 µM)	relative viability (Idelalisib + Phenformin; first compound 0.1265 µM)	relative viability (Idelalisib + Phenformin; first compound 0.4 µM)	relative viability (Idelalisib + Phenformin; first compound 1.265 µM)	relative viability (Idelalisib + Phenformin; first compound 4 µM)	relative viability (Pemetrexed + OSI-027; first compound 0.002 µM)	relative viability (Pemetrexed + OSI-027; first compound 0.006325 µM)	relative viability (Pemetrexed + OSI-027; first compound 0.02 µM)	relative viability (Pemetrexed + OSI-027; first compound 0.06325 µM)	relative viability (Pemetrexed + OSI-027; first compound 0.2 µM)	relative viability (Pemetrexed + Palbociclib; first compound 0.006325 µM)	relative viability (Pemetrexed + Palbociclib; first compound 0.02 µM)	relative viability (Pemetrexed + Palbociclib; first compound 0.06325 µM)	relative viability (Pemetrexed + Palbociclib; first compound 0.2 µM)	relative viability (Pemetrexed + Palbociclib; first compound 0.002 µM)
NCI-H460	0.0345	0.032	0.0291	0.0326	0.0297	0.643	0.516	0.438	0.503	0.515	0.57	0.51	0.824	0.374	0.0473	0.142	0.206	0.0722	0.0459	
NCI-H647	0.171	0.141		0.241	0.121	0.673	0.498		0.38	0.299	0.467	0.492	0.806	0.744	0.318	0.352	0.393	0.288	0.158	0.353
NCI-H838	0.235	0.346	0.273	0.339	0.243	0.61	0.668	0.405	0.607	0.405	0.454	0.292	0.379	0.244	0.197	0.223	0.28	0.252	0.173	0.219
PC-14	0.158	0.136	0.127	0.154	0.123	0.746	0.784	0.516	0.409	0.669	0.681	0.769	1.16	0.197	0.102	0.501	0.471	0.185	0.118	0.578
NCI-H358	0.284	0.587	0.347	0.235	0.159	0.386	0.327	0.225	0.338	0.313	0.729	0.751	0.638	0.191	0.106	0.111	0.14	0.134	0.137	0.149
NCI-H1915	0.843	0.809	0.759	0.878	0.83	0.387	0.36	0.364	0.381	0.372	0.58	0.631	0.661	0.609	0.573	0.512	0.568	0.521	0.522	0.487
201T	1.12	1.07	1.02	1.02	0.849	0.497	0.416	0.328	0.488	0.423	0.748	0.739	0.748	0.617	0.406	0.352	0.365	0.335	0.362	0.396
NCI-H1437	1.11	1.15	1.05	1.22	1.18	0.309	0.306	0.297	0.361	0.247		0.828	0.803	0.432	0.346	0.307	0.303	0.307	0.329	0.214
